Test results as given in the OligoGym collection.
HELM strings list units from the 5' end as sugar, base in round brackets, then linkage (d deoxyribose, r ribose, m 2'-O-methyl, p phosphodiester). [sp] = phosphorothioate linkage

What was measured:
CTNNB1 [1] = experiment: HEK293-TLR7, 100 nM ASO, then resiquimod
CTNNB1 [2] = experiment: HEK293-TLR8, 100 nM ASO, then resiquimod

Substance | TLR7 signal (NF-kB luciferase) (% of resiquimod alone) (CTNNB1 [1]) | TLR8 potentiation (NF-kB luciferase) (fold of resiquimod alone) (CTNNB1 [2])
RNA1{m(A)[sp].m(C)[sp].m(C)[sp].m(A)[sp].m(C)[sp].d(C)[sp].d(C)[sp].d(A)[sp].d(C)[sp].d(T)[sp].d(T)[sp].d(G)[sp].d(G)[sp].d(C)[sp].d(A)[sp].m(G)[sp].m(A)[sp].m(C)[sp].m(C)[sp].m(A)}$$$$ | 63.4 | 1.71
RNA1{m(G)[sp].m(G)[sp].m(A)[sp].m(U)[sp].m(C)[sp].d(T)[sp].d(G)[sp].d(C)[sp].d(A)[sp].d(T)[sp].d(G)[sp].d(C)[sp].d(C)[sp].d(C)[sp].d(T)[sp].m(C)[sp].m(A)[sp].m(U)[sp].m(C)[sp].m(U)}$$$$ | 47.9 | 1.15
RNA1{m(U)[sp].m(G)[sp].m(U)[sp].m(G)[sp].m(G)[sp].d(C)[sp].d(T)[sp].d(T)[sp].d(G)[sp].d(T)[sp].d(C)[sp].d(C)[sp].d(T)[sp].d(C)[sp].d(A)[sp].m(G)[sp].m(A)[sp].m(C)[sp].m(A)[sp].m(U)}$$$$ | 47.1 | 1.57
RNA1{m(G)[sp].m(C)[sp].m(U)[sp].m(U)[sp].m(A)[sp].d(T)[sp].d(T)[sp].d(T)[sp].d(T)[sp].d(A)[sp].d(A)[sp].d(G)[sp].d(C)[sp].d(A)[sp].d(T)[sp].m(A)[sp].m(U)[sp].m(U)[sp].m(A)[sp].m(A)}$$$$ | 41.1 | 1.9
RNA1{m(U)[sp].m(G)[sp].m(C)[sp].m(U)[sp].m(U)[sp].d(A)[sp].d(T)[sp].d(T)[sp].d(T)[sp].d(T)[sp].d(A)[sp].d(A)[sp].d(G)[sp].d(C)[sp].d(A)[sp].m(U)[sp].m(A)[sp].m(U)[sp].m(U)[sp].m(A)}$$$$ | 66.4 | 2.73
RNA1{m(C)[sp].m(A)[sp].m(A)[sp].m(U)[sp].m(G)[sp].d(G)[sp].d(G)[sp].d(A)[sp].d(G)[sp].d(A)[sp].d(A)[sp].d(T)[sp].d(A)[sp].d(A)[sp].d(A)[sp].m(G)[sp].m(C)[sp].m(A)[sp].m(G)[sp].m(C)}$$$$ | 73.7 | 2.5
RNA1{m(U)[sp].m(U)[sp].m(A)[sp].m(U)[sp].m(U)[sp].d(T)[sp].d(T)[sp].d(A)[sp].d(A)[sp].d(G)[sp].d(C)[sp].d(A)[sp].d(T)[sp].d(A)[sp].d(T)[sp].m(U)[sp].m(A)[sp].m(A)[sp].m(A)[sp].m(A)}$$$$ | 41.5 | 2.97
RNA1{m(G)[sp].m(G)[sp].m(U)[sp].m(C)[sp].m(C)[sp].d(A)[sp].d(T)[sp].d(A)[sp].d(C)[sp].d(C)[sp].d(C)[sp].d(A)[sp].d(A)[sp].d(G)[sp].d(G)[sp].m(C)[sp].m(A)[sp].m(U)[sp].m(C)[sp].m(C)}$$$$ | 105 | 1
RNA1{m(G)[sp].m(C)[sp].m(G)[sp].m(U)[sp].m(G)[sp].d(T)[sp].d(C)[sp].d(T)[sp].d(G)[sp].d(G)[sp].d(A)[sp].d(A)[sp].d(G)[sp].d(C)[sp].d(T)[sp].m(U)[sp].m(C)[sp].m(C)[sp].m(U)[sp].m(U)}$$$$ | 40.7 | 0.91
RNA1{m(G)[sp].m(G)[sp].m(G)[sp].m(U)[sp].m(C)[sp].d(C)[sp].d(A)[sp].d(C)[sp].d(C)[sp].d(A)[sp].d(C)[sp].d(T)[sp].d(A)[sp].d(G)[sp].d(C)[sp].m(C)[sp].m(A)[sp].m(G)[sp].m(U)[sp].m(A)}$$$$ | 33.5 | 1.18
RNA1{m(C)[sp].m(C)[sp].m(A)[sp].m(C)[sp].m(C)[sp].d(C)[sp].d(A)[sp].d(C)[sp].d(T)[sp].d(T)[sp].d(G)[sp].d(G)[sp].d(C)[sp].d(A)[sp].d(G)[sp].m(A)[sp].m(C)[sp].m(C)[sp].m(A)[sp].m(U)}$$$$ | 86.9 | 0.99
